Laboratory results published in patent publication US8871767B2, “2-arylimidazo[1,2-B]pyridazine, 2-phenylimidazo[1,2-A]pyridine, and 2-phenylimidazo[1,2-A]pyrazine derivatives” (Hengrui (USA) Ltd., priority 2010, dated 2014).
Where two headings read alike, the source gives them in different places.

Experiments:
[1] = system: Hedgehog pathway activation on 10T1/2/Smo#3 cells (C3H10T1/2 cells transfected with human Smoothened receptor); assay: Hedgehog pathway activation on 10T1/2/Smo#3 cells measured by ALP activity; format: cell-based; settings: Mus musculus, C3H 10T1/2, 10T1/2/Smo#3 cells
Procedure, shortened: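 Inhibition of alkaline phosphatase induction, read fluorometrically from 4-methylumbelliferyl phosphate conversion, gave IC50 values; CellTiter-Blue tracked viability in parallel. Cells were the human Smo-transfected 10T1/2/Smo#3 pool, stimulated by 10-20% hShh conditioned medium or the Smo agonist SAG (500 nM).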

[2] = system: Hedgehog pathway activation (GLi-luciferase reporter) in Shh Light II reporter cells; assay: Hedgehog pathway activation on Shh Light II reporter cells measured by luciferase activity; format: cell-based; settings: Mus musculus, Shh Light II
Procedure, shortened: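 Shh Light II reporter cells carrying a hedgehog-responsive GLi-luciferase reporter were stimulated either with 500 nM SAG, a direct Smoothened agonist, or with conditioned media containing human Sonic Hedgehog (hShh). Test compounds were evaluated for blocking this pathway activation, quantified by luciferase activity. Cell viability was monitored in parallel with the Celltiter-Blue® assay.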

[3] = hShh activation, ALP activity, read-out: 10T1/2/Smo#3 ALP activity (hShh Activation)
[4] = measured by ALP activity, read-out: ALP (IC50, inhibition of Hedgehog pathway activation)
[5] = SAG activation (500 nM SAG), read-out: Shh Light II luciferase activity (SAG activation)
[6] = hShh activation, read-out: Shh (IC50, inhibition of Hedgehog pathway activation)
[7] = hShh activation, read-out: Shh Light II luciferase activity (hShh activation)

IC50 [1, 3] [nM] | IC50 [1, 4] [nM] | IC50 [2, 5] [nM] | IC50 [2, 6] [nM] | IC50 [2, 7] [nM] | SMILES
 | 343 |  | 312 |  | CCOC1CCN(c2ccc3nc(-c4ccc(C(F)(F)F)c(NC(=O)C(C)(C)C)c4)cn3n2)CC1 [Example 367, N-(5-(6-(4-ethoxypiperidin-1-yl)imidazo[1,2-b]pyridazin-2-yl)-2-(trifluoromethyl)phenyl)pivalamide]
 | 321 |  | 118 |  | COCCNC1CCN(c2ccc3nc(-c4ccc(C(F)(F)F)c(NC(=O)C(C)(C)C)c4)cn3n2)CC1 [Example 368, N-(5-(6-(4-(2-methoxyethylamino)piperidin-1-yl)imidazo[1,2-b]pyridazin-2-yl)-2-(trifluoromethyl)phenyl)pivalamide]
300 to 3000 | 363 | 300 to 3000 | 713 | 300 to 3000 | CC(C)(C)C(=O)Nc1cc(-c2cn3nc(N4CCC(N5CCOCC5)CC4)ccc3n2)ccc1C(F)(F)F [Example 369, N-(5-(6-(4-morpholinopiperidin-1-yl)imidazo[1,2-b]pyridazin-2-yl)-2-(trifluoromethyl)phenyl)pivalamide]
 | 333 |  | 321 |  | CC1CN(C2CCN(c3ccc4nc(-c5ccc(C(F)(F)F)c(NC(=O)C(C)(C)C)c5)cn4n3)CC2)CC(C)O1 (stereo not shown) [Example 370, N-(5-(6-(4-(2,6-dimethylmorpholino)piperidin-1-yl)imidazo[1,2-b]pyridazin-2-yl)-2-(trifluoromethyl)phenyl)pivalamide]
 | 296 |  | 138 |  | CC(C)(C)C(=O)Nc1cc(-c2cn3nc(N4CCC5(CC4)OCCO5)ccc3n2)ccc1C(F)(F)F [Example 371, N-(5-(6-(1,4-dioxa-8-azaspiro[4.5]decan-8-yl)imidazo[1,2-b]pyridazin-2-yl)-2-(trifluoromethyl)phenyl)pivalamide]
 | 633 |  | 827 |  | CC(C)(C)C(=O)Nc1cc(-c2cn3nc(-c4cncnc4)ccc3n2)ccc1C(F)(F)F [Example 372, N-(5-(6-(pyrimidin-5-yl)imidazo[1,2-b]pyridazin-2-yl)-2-(trifluoromethyl)phenyl)pivalamide]
 | 1280 |  | 634 |  | CC(C)OCCOc1ccc2nc(-c3ccc(C(F)(F)F)c(NC(=O)C(C)(C)C)c3)cn2n1 [Example 374, N-(5-(6-(2-isopropoxyethoxy)imidazo[1,2-b]pyridazin-2-yl)-2-(trifluoromethyl)phenyl)pivalamide]
 | 372 |  | 316 |  | CC(C)(C)C(=O)Nc1cc(-c2cn3nc(OC4CCC(O)CC4)ccc3n2)ccc1C(F)(F)F (stereo not shown) [Example 375, N-(5-(6-(4-hydroxycyclohexyloxy)imidazo[1,2-b]pyridazin-2-yl)-2-(trifluoromethyl)phenyl)pivalamide]
 | 874 |  | 616 |  | CC(O)COc1ccc2nc(-c3ccc(C(F)(F)F)c(NC(=O)C(C)(C)C)c3)cn2n1 (stereo not shown) [Example 376, N-(5-(6-(2-hydroxypropoxy)imidazo[1,2-b]pyridazin-2-yl)-2-(trifluoromethyl)phenyl)pivalamide]
 | 704 |  | 657 |  | CC(C)(C)C(=O)Nc1cc(-c2cn3nc(OCCO)ccc3n2)ccc1C(F)(F)F [Example 377, N-(5-(6-(2-hydroxyethoxy)imidazo[1,2-b]pyridazin-2-yl)-2-(trifluoromethyl)phenyl)pivalamide]
 | 1860 |  | > 10000 |  | Cn1cccc1-c1ccc2nc(-c3ccc(C(F)(F)F)c(NC(=O)C(C)(C)C)c3)cn2n1 [Example 379, N-(5-(6-(1-methyl-1H-pyrrol-2-yl)imidazo[1,2-b]pyridazin-2-yl)-2-(trifluoromethyl)phenyl)pivalamide]
 | 141 |  | 193 |  | Cc1ccncc1-c1ccc2nc(-c3ccc(C(F)(F)F)c(NC(=O)C(C)(C)C)c3)cn2n1 [Example 383, N-(5-(6-(4-methylpyridin-3-yl)imidazo[1,2-b]pyridazin-2-yl)-2-(trifluoromethyl)phenyl)pivalamide]

Further lines, the compound ahead of its results:

SMILES | IC50 [1, 3] [nM] | IC50 [1, 4] [nM] | IC50 [2, 5] [nM] | IC50 [2, 6] [nM] | IC50 [2, 7] [nM]
CC(=O)NC1CCN(c2ccc3nc(-c4ccc(C)c(NC(=O)C(C)(C)C)c4)c(C)n3n2)C1 (stereo not shown) [Example 363, N-(5-(6-(3-acetamidopyrrolidin-1-yl)-3-methylimidazo[1,2-b]pyridazin-2-yl)-2-methylphenyl)pivalamide] | 300 to 3000 | 1240 | 300 to 3000 | 612 | 300 to 3000
Cc1ccc(-c2cn3nc(-c4cnccc4C(F)(F)F)ccc3n2)cc1NC(=O)C(C)(C)C [Example 364, N-(2-methyl-5-(6-(4-(trifluoromethyl)pyridin-3-yl)imidazo[1,2-b]pyridazin-2-yl)phenyl)pivalamide] |  | 1 |  | 3 | 
Cc1ccc(-c2cn3nc(-c4ccnc(F)c4)ccc3n2)cc1NC(=O)C(C)(C)C [Example 365, N-(5-(6-(2-fluoropyridin-4-yl)imidazo[1,2-b]pyridazin-2-yl)-2-methylphenyl)pivalamide] |  | 360 |  | 124 | 
Cc1ccc(-c2cn3nc(-c4ccc(Cl)cn4)ccc3n2)cc1NC(=O)C(C)(C)C [Example 366, N-(5-(6-(5-chloropyridin-2-yl)imidazo[1,2-b]pyridazin-2-yl)-2-methylphenyl)pivalamide] |  | 1100 |  | 227 | 
COc1ncc(-c2ccc3nc(-c4ccc(C(F)(F)F)c(NC(=O)C(C)(C)C)c4)cn3n2)cn1 [Example 373, N-(5-(6-(2-methoxypyrimidin-5-yl)imidazo[1,2-b]pyridazin-2-yl)-2-(trifluoromethyl)phenyl)pivalamide] |  | 533 |  | 929 | 
CN(C)c1ncc(-c2ccc3nc(-c4ccc(C(F)(F)F)c(NC(=O)C(C)(C)C)c4)cn3n2)cn1 [Example 378, N-(5-(6-(2-(dimethylamino)pyrimidin-5-yl)imidazo[1,2-b]pyridazin-2-yl)-2-(trifluoromethyl)phenyl)pivalamide] |  | 963 |  | 1540 | 
COCCN(CCOC)c1ccc2nc(-c3ccc(C(F)(F)F)c(NC(=O)C(C)(C)C)c3)cn2n1 [Example 380, N-(5-(6-(bis(2-methoxyethyl)amino)imidazo[1,2-b]pyridazin-2-yl)-2-(trifluoromethyl)phenyl)pivalamide] |  | 383 |  | 273 | 
Cc1cc(-c2ccc3nc(-c4ccc(C(F)(F)F)c(NC(=O)C(C)(C)C)c4)cn3n2)ccn1 [Example 381, N-(5-(6-(2-methylpyridin-4-yl)imidazo[1,2-b]pyridazin-2-yl)-2-(trifluoromethyl)phenyl)pivalamide] |  | 580 |  | 1250 | 
COc1cnccc1-c1ccc2nc(-c3ccc(C(F)(F)F)c(NC(=O)C(C)(C)C)c3)cn2n1 [Example 382, N-(5-(6-(3-methoxypyridin-4-yl)imidazo[1,2-b]pyridazin-2-yl)-2-(trifluoromethyl)phenyl)pivalamide] |  | 536 |  | 1220 | 
COc1ccncc1-c1ccc2nc(-c3ccc(C(F)(F)F)c(NC(=O)C(C)(C)C)c3)cn2n1 [Example 384, N-(5-(6-(4-methoxypyridin-3-yl)imidazo[1,2-b]pyridazin-2-yl)-2-(trifluoromethyl)phenyl)pivalamide] |  | 227 |  | 689 | 
CC(C)(C)C(=O)Nc1cc(-c2cn3nc(-c4cncc5ccccc45)ccc3n2)ccc1C(F)(F)F [Example 385, N-(5-(6-(isoquinolin-4-yl)imidazo[1,2-b]pyridazin-2-yl)-2-(trifluoromethyl)phenyl)pivalamide] | 300 to 3000 | 1380 | 300 to 3000 | 778 | 300 to 3000
